Assay [1] has as its target T1, PIM2 (Homo sapiens, UniProt Q9P1W9). Kind of assay: KINOMEscan competition binding assay (Kd). The note with it: run in duplicate.
Assay [2] concerns the target T2, PIM3 (Homo sapiens, UniProt Q86V86). Nature of the assay: KINOMEscan competition binding assay (Kd). The note with it: run in duplicate.
For assay [3], the target named is T3, PIM1 (Homo sapiens, UniProt P11309). Nature of the assay: KINOMEscan competition binding assay (Kd).
In assay [4] the target is T1, PIM2. Kind of assay: Biochemical kinase assay, radiolabeled ATP filter binding (Reaction Biology). Particulars: 10 μM ATP, peptide substrate […].
Assay [5] has as its target T2, PIM3. The assay is described as above. Particulars: 10 μM ATP, peptide substrate RSRHSSYPAGT
Assay [6] concerns the target T3, PIM1. The assay is described as above. The note with it: 10 μM ATP, peptide substrate […].
Assay [7] concerns HEK-293. Kind of assay: Cell Titer-Glo 2.0 luminescent cell viability assay. It counts as cell-based. Particulars: Homo sapiens, HEK293; 72 hour incubation, cell viability (ATP luminescence). How it is done: (§1) To obtain growth inhibition data of endodermal cancer cells for PIM kinase inhibitors, Compound 122 was tested against SNU-16, HepG2, MIA PaCa-2, SW480, DU145, HEK-293, PANC-1, and THLE-3 cell lines using CELL TITER-GLO® 2.0 Luminescent Cell Viability Assay (Promega Corporation, Madison, Wis.) at Reaction Biology Corporation (Maven, Pa.). All cell lines were purchased from American Type Culture Collection (ATCC, Manassas, Va.) and maintained in the recommended culture media in the presence of 10% fetal bovind serum, […] of penicillin and 100 µg/mL of streptomycin at 37° C. in a humidified atmosphere of 5% CO2 and 95% air. To initiate the growth inhibition study, Compound 122 was diluted in DMSO solution with 10-dose and 3-fold dilutions in a source plate starting at 50 mM. […] The cells in the cell culture plates were incubated with the compounds at 37° C. for 72 hours in a humidified atmosphere of 5% CO2 and 95% air. After a 72 hour incubation period, 25 μl of Cell Titer Glo 2.0 reagent was added to each well. The contents were mixed on an orbital shaker for 2 minutes and incubated at room temperature for 15 minutes to stabilize the luminescent signal. Luminescence was recorded by Envision 2104 Multilabel Reader (PerkinElmer, Santa Clara, Calif.). The number of viable cells in culture was determined based on quantitation of the ATP present in each culture well. […] Table 5 lists the IC50 values for Compound 122 in the tested cell lines.
On the technique in general: In ATP-based viability assays light output follows the ATP content of the culture.

Assay [8] deals with THLE-3. The assay is described as above. It counts as cell-based. The note with it: THLE3; 72 hour incubation, cell viability (ATP luminescence). How it is done: as §1
Assay [9] has as its system DU145. The description is as above. The note with it: Homo sapiens, DU-145; 72 hour incubation, cell viability (ATP luminescence). Format: cell-based. How it is done: as §1
For assay [10], the system named is SNU-16. The assay is described as above. Format: cell-based. Particulars: Homo sapiens, 72 hour incubation, cell viability (ATP luminescence). How it is done: as §1
For assay [11], the system named is MIA PaCa-2. The description is as above. Format: cell-based. Particulars: Homo sapiens, 72 hour incubation, cell viability (ATP luminescence). How it is done: as §1
The subject of assay [12] is HepG2. The assay is described as above. It counts as cell-based. The note with it: Homo sapiens, 72 hour incubation, cell viability (ATP luminescence). How it is done: as §1
The subject of assay [13] is SW480. Described as above. It counts as cell-based. The note with it: Homo sapiens, 72 hour incubation, cell viability (ATP luminescence). How it is done:
as §1

Assay [14] deals with PANC-1. Described as above. Format: cell-based, human. The note with it: 72 hour incubation, cell viability (ATP luminescence). How it is done: To obtain growth inhibition data of endodermal cancer cells for PIM kinase inhibitors, Compound 122 was tested against SNU-16, HepG2, MIA PaCa-2, SW480, DU145, HEK-293, PANC-1, and THLE-3 cell lines using CELL TITER-GLO® 2.0 Luminescent Cell Viability Assay (Promega Corporation, Madison, Wis.) at Reaction Biology Corporation (Maven, Pa.). All cell lines were purchased from American Type Culture Collection (ATCC, Manassas, Va.) and maintained in the recommended culture media in the presence of 10% fetal bovind serum, […] of penicillin and 100 µg/mL of streptomycin at 37° C. in a humidified atmosphere of 5% CO2 and 95% air. To initiate the growth inhibition study, Compound 122 was diluted in DMSO solution with 10-dose and 3-fold dilutions in a source plate starting at 50 mM. […] The cells in the cell culture plates were incubated with the compounds at 37° C. for 72 hours in a humidified atmosphere of 5% CO2 and 95% air. After a 72 hour incubation period, 25 μl of Cell Titer Glo 2.0 reagent was added to each well. The contents were mixed on an orbital shaker for 2 minutes and incubated at room temperature for 15 minutes to stabilize the luminescent signal. Luminescence was recorded by Envision 2104 Multilabel Reader (PerkinElmer, Santa Clara, Calif.). The number of viable cells in culture was determined based on quantitation of the ATP present in each culture well. […]

[15] abbreviates: competition binding, read-out: Kd PIM3.
[16] abbreviates: competition binding, run in duplicate, read-out: Kd PIM1.

Where “and” joins values, the source holds several entries; their conditions need not be identical. Identical values can stand only once. Like-named read-outs stand apart in the source and are kept apart here.

`O=C1NC(=O)c2c1c1c3cccc(F)c3[nH]c1c1[nH]c3c(F)cccc3c21` [Compound 131]: the Kd was 2600 nM in [1], 130 nM in assay [2] (setting [15]) and 6.3 µM in assay [3] (setting [16]).
Consider `CN(C)C[C@@H]1CCn2cc(c3ccccc32)C2=C(C(=O)NC2=O)c2cn(c3ccccc23)CCO1` [Ruboxistaurin, ruboxistaurin, reference compound], for which the IC50 in [4] turned out to be 7650 nM; in [5], 10 nM.
Turning to `N#Cc1cccc2c1[nH]c1c3[nH]c4c(C#N)cccc4c3c3c(c21)C(=O)NC3=O` [Compound 147], the Kd in assay [1] was more than 3000 nM; in assay [2] (setting [15]), more than 3000 nM; in assay [3] (setting [16]), more than 3 µM.
Regarding `O=C1NC(=O)c2c1c1c([nH]c3cccc(F)c31)c1[nH]c3cccc(F)c3c21` [Compound 128], the Kd was 260 nM in assay [1], 24 nM in assay [2] (setting [15]) and 0.28 µM in [3] (setting [16]).
Taken in the same sequence, the figures for `O=C1NC(=O)c2c1c1c3ccc(F)cc3[nH]c1c1[nH]c3cc(F)ccc3c21` [Compound 130] were 150 nM, 48 nM and 0.7 µM.
The corresponding values for `O=C1NC(=O)c2c1c1c3cc(Br)ccc3[nH]c1c1[nH]c3ccc(Br)cc3c21` [Compound 137] are more than 10000 nM, more than 10000 nM and more than 10 µM.
Taken in the same sequence, the figures for `O=C1NC(=O)c2c1c1c3cccc(Br)c3[nH]c1c1[nH]c3c(Br)cccc3c21` [Compound 139] were more than 3000 nM, more than 3000 nM and more than 3 µM.
For the molecule `O=C1NC(=O)c2c1c1c3cc(F)ccc3[nH]c1c1[nH]c3ccc(F)cc3c21` [Compound 129, 3,9-difluoro-arcyriaflavin A], the Kd in assay [1] was found to be 77 nM; in assay [2] (setting [15]), 27 nM; in assay [3] (text value printed in μM, read-out: Kd for PIM1), 2.5 µM.
For `COC(=O)[C@@]1(O)C[C@H]2O[C@]1(C)n1c3ccccc3c3c4c(c5c6ccccc6n2c5c31)C(=O)NC4` [Compound K252a, K252a, reference compound], in [2] (Kd PIM3, competition binding), the dissociation constant Kd was approximately 10 nM.
As for `O=C1NC(=O)c2c1c1c3cccc(O)c3[nH]c1c1[nH]c3c(O)cccc3c21` [Compound 123], the IC50 was 55 nM in assay [4], 0.2 nM in [5] and 3.9 nM in assay [6]. Besides, the results for the Kd in assay [1], in assay [2] (setting [15]) and in [3] (setting [16]) were 84 nM, 6.4 nM and 0.13 µM, respectively.
`O=C1NC(=O)c2c1c1c3ccc(O)cc3[nH]c1c1[nH]c3cc(O)ccc3c21` [Compound 122]: the IC50 in assay [4] came out at 5.4 nM; in assay [7], 2700 nM; in [8], 4620 nM; in [9] it was 2330 nM; in [10], 700 nM; in assay [11] it was 4810 nM. For the same molecule, the IC50 came to 970 nM in [12], 2890 nM in [13], 0.03 nM in assay [5] and 0.5 nM in assay [6]. Further, the dissociation constant Kd was determined as 9 nM in assay [1], 3 nM in assay [2] (setting [15]) and 0.011 µM in assay [3] (setting [16]). Moreover, the “IC50 PANC-1” value in assay [14] is “no inhibition”.
As to `O=C1NC(=O)c2c1c1c3ccccc3[nH]c1c1c2c2ccccc2n1CCN1CCOCC1` [Compound 3, 12,13-dihydro-12-(2-(4-morpholine)ethyl)-5H-Indolo[2,3-a]pyrrolo[3,4-c]carbazole-5,7(6H)-dione], the IC50 came to 138 nM in assay [4], 0.2 nM in assay [5] and 1.6 nM in assay [6].
`O=C1NC(=O)c2c1c1c3ccccc3[nH]c1c1[nH]c3ccccc3c21` [Arcyriaflavin A, 12,13-dihydro-5H-indolo[2,3-a]pyrrolo[3,4-c]carbazole-5,7(6H)-dione, reference compound]: the IC50 in assay [4] was determined as 21 nM; in assay [5], 0.3 nM; in [6], 2.2 nM. In addition, the Kd in [1] was 19 nM; in assay [2] (setting [15]), 2 nM and 1.9 nM; in assay [3] (setting [16]) it was 0.021 µM.
On to `N#Cc1ccc2c(c1)[nH]c1c3[nH]c4cc(C#N)ccc4c3c3c(c21)C(=O)NC3=O` [Compound 146], for which the Kd in [1] is more than 10000 nM; in assay [2] (setting [15]), more than 10000 nM; in [3] (setting [16]) it was more than 10 µM.
Consider `O=C1NC(=O)c2c1c1c3ccc(Br)cc3[nH]c1c1[nH]c3cc(Br)ccc3c21` [Compound 138], for which the dissociation constant (Kd) in assay [1] is more than 10000 nM; in [2] (setting [15]) it was more than 10000 nM; in assay [3] (setting [16]), more than 10 µM.

As usually defined, the Kd is a measure of binding affinity in units of concentration. The term IC50 denotes the concentration needed to halve the response being measured.

The record behind these values is patent US11319320B2, “PIM kinase inhibitor compositions, methods, and uses thereof” (Snap Bio, Inc., priority 2017, dated 2022).
